These results are taken from patent publication US20260365682A1, “MODULATORS OF TNF-ALPHA ACTIVITY” (Forward Therapeutics, Inc., priority 2022, published 2026).

Like-named read-outs stand apart in the source and are kept apart here.

This test deals with T1, TNF-α (Homo sapiens, UniProt P01375).
T1 construct: purchased R&D 210-TA-020/CF
The experiment in a line: TNF-α Induced HEK Blue Cellular Assay (secreted alkaline phosphatase expression, QUANTI-Blue). To be noted: HEK Blue TNFα reporter cells, TNF-α 100 μg/ml, 24 hrs at 37° C., inhibition of secreted alkaline phosphatase. The format is cell-based. In a few lines:
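Compound was serially diluted from […] to 0.5 nM final, then incubated with 10,000 HEK Blue TNFα reporter cells per well and […] TNF-α for 24 h at 37° C. SEAP output was read by QUANTI-Blue absorbance at 620 nm. Inhibition was background-corrected against DMSO controls with and without stimulation, and IC50 was fitted with a 4-parameter logistic equation.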

One may read the IC50 as the midpoint of a concentration-inhibition curve.

T1 sequence (P01375 77-233 limits assumed): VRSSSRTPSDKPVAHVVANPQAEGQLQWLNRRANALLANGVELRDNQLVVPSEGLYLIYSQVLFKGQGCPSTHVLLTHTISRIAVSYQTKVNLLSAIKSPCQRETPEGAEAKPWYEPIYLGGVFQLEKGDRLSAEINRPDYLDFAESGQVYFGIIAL

With `[2H]C([2H])([2H])N1C(=O)c2cccc(OC(F)F)c2[C@H]2C[C@@H]1c1nc3ccc(C#Cc4ccc(C)nn4)cc3n12` [Example 26, (7R,14R)-1-(difluoromethoxy)-6-(methyl-d3)-11-((6-methylpyridazin-3-yl)ethynyl)-6,7-dihydro-7,14-methanobenzo[f]benzo[4,5]imidazo[1,2-a][1,4]diazocin-5(14H)-one], the IC50 (read-out: IC50 value) lay within 100 to 1000 nM. The same measure, in the same setting: the figure for `[2H]C([2H])([2H])N1C(=O)c2cccc(OC(F)F)c2[C@H]2C[C@@H]1c1nc3ccc(C#CCOCC(C)O)cc3n12` (stereo partly drawn) [Example 73, (7R,14R)-1-(difluoromethoxy)-11-(3-(2-hydroxypropoxy)prop-1-yn-1-yl)-6-(methyl-d3)-6,7-dihydro-7,14-methanobenzo[f]benzo[4,5]imidazo[1,2-a][1,4]diazocin-5(14H)-one] is under 100 nM; for `[2H]C([2H])([2H])N1C(=O)c2cccc(OC(F)F)c2[C@H]2C[C@@H]1c1nc3ccc(C#CCCC(C)O)cc3n12` (stereo partly drawn) [Example 207, (7R,14R)-1-(difluoromethoxy)-11-(5-hydroxyhex-1-yn-1-yl)-6-(methyl-d3)-6,7-dihydro-7,14-methanobenzo[f]benzo[4,5]imidazo[1,2-a][1,4]diazocin-5(14H)-one] it is under 100 nM. Still for that read-out and setting: the figure for `[2H]C([2H])([2H])N1C(=O)c2cccc(OC(F)F)c2[C@H]2C[C@@H]1c1nc3ccc(C#CCN4CC[C@H](F)C4)cc3n12` [Example 235, (7R,14R)-1-(difluoromethoxy)-11-(3-((S)-3-fluoropyrrolidin-1-yl)prop-1-yn-1-yl)-6-(methyl-d3)-6,7-dihydro-7,14-methanobenzo[f]benzo[4,5]imidazo[1,2-a][1,4]diazocin-5(14H)-one] is under 100 nM. The same measure, in the same setting: the result for `[2H]C([2H])([2H])N1C(=O)c2cccc(OC(F)F)c2[C@H]2C[C@@H]1c1nc3ccc(C#CCNC(C)C)cc3n12` [Example 66, (7R,14R)-1-(difluoromethoxy)-11-(3-(isopropylamino)prop-1-yn-1-yl)-6-(methyl-d3)-6,7-dihydro-7,14-methanobenzo[f]benzo[4,5]imidazo[1,2-a][1,4]diazocin-5(14H)-one] reads 100 to 1000 nM. On to `[2H]C([2H])([2H])N1C(=O)c2cccc(OC(F)F)c2[C@H]2C[C@@H]1c1nc3ccc(C#Cc4cn(C)nn4)cc3n12` [Example 18, (7R,14R)-1-(difluoromethoxy)-6-(methyl-d3)-11-((1-methyl-1H-1,2,3-triazol-4-yl)ethynyl)-6,7-dihydro-7,14-methanobenzo[f]benzo[4,5]imidazo[1,2-a][1,4]diazocin-5(14H)-one], for which the IC50 (read-out: IC50 value) is under 100 nM. For `[2H]C([2H])([2H])N1C(=O)c2cccc(OC(F)F)c2[C@H]2C[C@@H]1c1nc3ccc(C#Cc4cnc(N)nc4)cc3n12` [Example 249, (7R,14R)-11-((2-aminopyrimidin-5-yl)ethynyl)-1-(difluoromethoxy)-6-(methyl-d3)-6,7-dihydro-7,14-methanobenzo[f]benzo[4,5]imidazo[1,2-a][1,4]diazocin-5(14H)-one], the half-maximal inhibitory concentration (IC50) (read-out: IC50 value) is under 100 nM. Regarding `[2H]C([2H])([2H])N1C(=O)c2cccc(OC(F)F)c2[C@H]2C[C@@H]1c1nc3ccc(C#C[C@@H](C)NCC)cc3n12` [Example 54, (7R,14R)-1-(difluoromethoxy)-11-((R)-3-(ethylamino)but-1-yn-1-yl)-6-(methyl-d3)-6,7-dihydro-7,14-methanobenzo[f]benzo[4,5]imidazo[1,2-a][1,4]diazocin-5(14H)-one], the IC50 (read-out: IC50 value) was 10000 to 30000 nM.

In the case of `[2H]C([2H])([2H])N1C(=O)c2cccc(OC(F)F)c2[C@H]2C[C@@H]1c1nc3ccc(C#CCNCC)cc3n12` [Example 65, (7R,14R)-1-(difluoromethoxy)-11-(3-(ethylamino)prop-1-yn-1-yl)-6-(methyl-d3)-6,7-dihydro-7,14-methanobenzo[f]benzo[4,5]imidazo[1,2-a][1,4]diazocin-5(14H)-one], where the note is “read-out: IC50 value”, the IC50 is 10000 to 30000 nM. Regarding `[2H]C([2H])([2H])N1C(=O)c2cccc(OC(F)F)c2[C@H]2C[C@@H]1c1nc3ccc(C#CC(O)C(F)(F)F)cc3n12` (single isomer, unassigned) [Example 199, (7R,14R)-1-(difluoromethoxy)-6-(methyl-d3)-11-((R or S)-4,4,4-trifluoro-3-hydroxybut-1-yn-1-yl)-6,7-dihydro-7,14-methanobenzo[f]benzo[4,5]imidazo[1,2-a][1,4]diazocin-5(14H)-one], for the setting “read-out: IC50 value”, the IC50 was 100 to 1000 nM.

With `[2H]C([2H])([2H])N1C(=O)c2cccc(OC(F)F)c2[C@H]2C[C@@H]1c1nc3ccc(C#CCCOC(F)F)cc3n12` [Example 103, (7R,14R)-1-(difluoromethoxy)-11-(4-(difluoromethoxy)but-1-yn-1-yl)-6-(methyl-d3)-6,7-dihydro-7,14-methanobenzo[f]benzo[4,5]imidazo[1,2-a][1,4]diazocin-5(14H)-one], where the note is “read-out: IC50 value”, the IC50 was under 100 nM. `[2H]C([2H])([2H])N1C(=O)c2cccc(OC(F)F)c2[C@H]2C[C@@H]1c1nc3ccc(C#CC4(C)CN(C(=O)C(C)(C)C#N)C4)cc3n12` [Example 157, 3-(3-(((7R,14R)-1-(difluoromethoxy)-6-(methyl-d3)-5-oxo-5,6,7,14-tetrahydro-7,14-methanobenzo[f]benzo[4,5]imidazo[1,2-a][1,4]diazocin-11-yl)ethynyl)-3-methylazetidin-1-yl)-2,2-dimethyl-3-oxopropanenitrile]: the IC50 (read-out: IC50 value) was in the range of 100 to 1000 nM.

Turning to `[2H]C([2H])([2H])N1C(=O)c2cccc(OC(F)F)c2[C@H]2C[C@@H]1c1nc3ccc(C#CC4(C)CNC4)cc3n12` [Example 158, (7R,14R)-1-(difluoromethoxy)-6-(methyl-d3)-11-((3-methylazetidin-3-yl)ethynyl)-6,7-dihydro-7,14-methanobenzo[f]benzo[4,5]imidazo[1,2-a][1,4]diazocin-5(14H)-one], the IC50 (read-out: IC50 value) is under 100 nM. On to `[2H]C([2H])([2H])N1C(=O)c2cccc(OC(F)F)c2[C@H]2C[C@@H]1c1nc3ccc(C#CCN4CC(F)C4)cc3n12` [Example 232, (7R,14R)-1-(difluoromethoxy)-11-(3-(3-fluoroazetidin-1-yl)prop-1-yn-1-yl)-6-(methyl-d3)-6,7-dihydro-7,14-methanobenzo[f]benzo[4,5]imidazo[1,2-a][1,4]diazocin-5(14H)-one], for which, where the note is “read-out: IC50 value”, the IC50 is 100 to 1000 nM. On the same count and under the same terms, the result for `[2H]C([2H])([2H])N1C(=O)c2cccc(OC(F)F)c2[C@H]2C[C@@H]1c1nc3ccc(C#CCN(C)C)cc3n12` [Example 61, (7R,14R)-1-(difluoromethoxy)-11-(3-(dimethylamino)prop-1-yn-1-yl)-6-(methyl-d3)-6,7-dihydro-7,14-methanobenzo[f]benzo[4,5]imidazo[1,2-a][1,4]diazocin-5(14H)-one] reads 100 to 1000 nM. For `[2H]C([2H])([2H])N1C(=O)c2cccc(OC(F)F)c2[C@H]2C[C@@H]1c1nc3ccc(C#Cc4nnc(CNC)s4)cc3n12` [Example 46, (7R,14R)-1-(difluoromethoxy)-6-(methyl-d3)-11-((5-((methylamino)methyl)-1,3,4-thiadiazol-2-yl)ethynyl)-6,7-dihydro-7,14-methanobenzo[f]benzo[4,5]imidazo[1,2-a][1,4]diazocin-5(14H)-one], the IC50 (read-out: IC50 value) is 100 to 1000 nM. Same read-out and setting: the result for `[2H]C([2H])([2H])N1C(=O)c2cccc(OC(F)F)c2[C@H]2C[C@@H]1c1nc3ccc(C#CCC(C)OC)cc3n12` (single isomer, unassigned) [Example 148, (7R,14R)-1-(difluoromethoxy)-11-((R or S)-4-methoxypent-1-yn-1-yl)-6-(methyl-d3)-6,7-dihydro-7,14-methanobenzo[f]benzo[4,5]imidazo[1,2-a][1,4]diazocin-5(14H)-one] reads under 100 nM. On the same count and under the same terms, the figure for `[2H]C([2H])([2H])N1C(=O)c2cccc(OC(F)F)c2[C@H]2C[C@@H]1c1nc3ccc(C#CC4(C)CCN(C(=O)C5CC5)CC4)cc3n12` [Example 181, (7R,14R)-11-((1-(cyclopropanecarbonyl)-4-methylpiperidin-4-yl)ethynyl)-1-(difluoromethoxy)-6-(methyl-d3)-6,7-dihydro-7,14-methanobenzo[f]benzo[4,5]imidazo[1,2-a][1,4]diazocin-5(14H)-one] is 10000 to 30000 nM; for `[2H]C([2H])([2H])N1C(=O)c2cccc(OC(F)F)c2[C@H]2C[C@@H]1c1nc3ccc(C#CC4CCCNC4)cc3n12` (stereo partly drawn) [Example 60, (7R,14R)-1-(difluoromethoxy)-6-(methyl-d3)-11-(piperidin-3-ylethynyl)-6,7-dihydro-7,14-methanobenzo[f]benzo[4,5]imidazo[1,2-a][1,4]diazocin-5(14H)-one] it is under 100 nM. `[2H]C([2H])([2H])N1C(=O)c2cccc(OC(F)F)c2[C@H]2C[C@@H]1c1nc3ccc(C#Cc4nnc(N)s4)cc3n12` [Example 263, (7R,14R)-11-((5-amino-1,3,4-thiadiazol-2-yl)ethynyl)-1-(difluoromethoxy)-6-(methyl-d3)-6,7-dihydro-7,14-methanobenzo[f]benzo[4,5]imidazo[1,2-a][1,4]diazocin-5(14H)-one]: under “read-out: IC50 value”, the IC50 is under 100 nM.

For the molecule `[2H]C([2H])([2H])N1C(=O)c2cccc(OC(F)F)c2[C@H]2C[C@@H]1c1nc3ccc(C#CC4CN(C(C)=O)C4)cc3n12` [Example 120, (7R,14R)-11-((1-acetylazetidin-3-yl)ethynyl)-1-(difluoromethoxy)-6-(methyl-d3)-6,7-dihydro-7,14-methanobenzo[f]benzo[4,5]imidazo[1,2-a][1,4]diazocin-5(14H)-one], the 50% inhibitory concentration (IC50) (IC50 value) was under 100 nM. As for `[2H]C([2H])([2H])N1C(=O)c2cccc(OC(F)F)c2[C@H]2C[C@@H]1c1nc3ccc(C#CC4CCCCO4)cc3n12` (stereo partly drawn) [Example 49, (7R,14R)-1-(difluoromethoxy)-6-(methyl-d3)-11-((tetrahydro-2H-pyran-2-yl)ethynyl)-6,7-dihydro-7,14-methanobenzo[f]benzo[4,5]imidazo[1,2-a][1,4]diazocin-5(14H)-one], the IC50 (read-out: IC50 value) fell in the range of 100 to 1000 nM.
